The record followed here is US10023519B2, “Cyclobutane containing carboxylic acid GPR120 modulators” (BRISTOL-MYERS SQUIBB COMPANY, priority 2014, dated 2018).

As usually defined, the EC50 is the midpoint of the concentration-response curve.

Sequence of human GPR120 (Q5NUL3 whole entry): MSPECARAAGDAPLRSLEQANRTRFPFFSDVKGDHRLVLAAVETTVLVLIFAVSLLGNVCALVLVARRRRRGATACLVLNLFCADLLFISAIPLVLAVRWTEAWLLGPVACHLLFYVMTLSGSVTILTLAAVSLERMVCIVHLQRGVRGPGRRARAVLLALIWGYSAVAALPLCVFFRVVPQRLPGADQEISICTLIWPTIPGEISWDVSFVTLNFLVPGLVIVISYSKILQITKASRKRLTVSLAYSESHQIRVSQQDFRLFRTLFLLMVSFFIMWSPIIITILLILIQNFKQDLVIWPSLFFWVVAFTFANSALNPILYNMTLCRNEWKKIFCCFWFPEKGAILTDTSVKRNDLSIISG

This experiment addresses human GPR120 (Homo sapiens (Human), UniProt Q5NUL3). As to the kind of experiment: GPR120 pERK AlphaScreen SureFire Assay (human). The format is cell-based. The conditions noted are these: CHO cells stably transfected with short form of human GPR120.
Description: GPR120 activity was monitored by measuring phosphorylation of ERK (pERK), since G protein receptors are known to activate the ERK signaling cascade either directly and/or through recruitment of arrestin that serves as a scaffold for downstream signaling events.
GPR120 pERK AlphaScreen SureFire Assay
The human and mouse GPR120-mediated intracellular phosphorylated ERK assays were established using CHOA12 cells stably transfected with the short form of human or mouse GPR120 receptor. […] Cells were cryo preserved at a concentration of 2×10^7 cells/mL, in 90% Charcoal/Dextran FBS and 10% DMSO, and frozen in liquid nitrogen at a low passage number.
The flasks were placed in a tissue culture incubator overnight (37° C., 5% CO2). […] The next day, cells were serum starved in 30 μL of F-12 media without any serum or antibiotics for 2 hours at 37° C.
Cells were then stimulated with 50 nL of compound dilutions using ECHO liquid handler for 7 minutes at 37° C.
(§1) The lysis buffer was diluted 5-fold with water before use. […] The SureFire assay reagent mix was prepared by mixing 60 parts Reaction Buffer, 10 parts Activation Buffer, 1 part Donor Beads, 1 part Acceptor Beads (Perkin Elmer Cat. #TGRES10K). 3.5 μL/well of this reagent mix was manually added to the proxiplate with a multichannel pipettor. Plates were spun down at 1000 rpm for 2 minutes, followed by light-protected incubation at room temperature for 2 hours. The plates were read on the Alpha-technology compatible Envision multilabel plate reader using AlphaScreen protocol according to manufacturer's specifications. The agonist effect of compounds was expressed as 100× (average sample−average blank)/(average total−average blank) where sample is the luminescence activity in the presence of test compound, blank is equal to the luminescence activity in the presence of DMSO control and the total is signal induced by 50 μM linolenic acid as reference compound. Activation data for the test compound over a range of concentrations was plotted as percentage activation of the test compound (100%=maximum response). After correcting for background, EC50 values were determined.
The human and mouse GPR120-mediated intracellular phosphorylated ERK assays were also established using CHO-K1 cells stably transfected with the short form of human or mouse GPR120 receptor. […] Cells were cryo preserved at a concentration of 3×10^6 cells/mL, in 70% F-12, 20% Charcoal/Dextran FBS and 10% DMSO, and frozen in liquid nitrogen at a low passage number.
The flasks were placed in a tissue culture incubator overnight (37° C., 5% CO2).
Cells were then stimulated with 40 nL of compound dilutions using ECHO liquid handler for 7 minutes at 37° C.
as §1, with “compound.” for “compound. Activation data for the test compound over a range of concentrations was plotted as percentage activation of the test compound (100%=maximum response). After correcting for background, EC50 values were determined.”
Activation data for the test compound over a range of concentrations was plotted as percentage activation of the test compound (100%=maximum response). After correcting for background, EC50 values were determined.
(In general: Alpha assays give light when donor and acceptor beads are brought close together.)
The compound `CC(C)Sc1ncc(C(F)(F)F)cc1-c1ccc([C@H]2C[C@@H](OCC(=O)O)C2)cc1` [Example 13, Cis-2-(3-(4-(2-(isopropylthio)-5-(trifluoromethyl)pyridin-3-yl)phenyl)cyclobutoxy)acetic acid] showed an EC50 of 2.61 µM. On to `O=C(O)CO[C@H]1C[C@H](c2ccc(-c3cc(Oc4ccccc4)ccc3F)cc2)C1` [Example 39, Trans-2-(3-(2′-fluoro-5′-phenoxy-[1,1′-biphenyl]-4-yl)cyclobutoxy)acetic acid], for which it took 0.41 µM to reach a half-maximal effect (EC50). `CC(C)Oc1ccc(F)c(-c2ccc(C[C@H]3C[C@H](CC(=O)O)C3)cc2)c1` [Example 52, 2-(Trans-3-((2′-fluoro-5′-isopropoxy-[1,1′-biphenyl]-4-yl)methyl)cyclobutyl)acetic acid] returned an EC50 of 0.94 µM.

In the case of `CC(C)Oc1ccc(F)c(-c2ccc(C3CC4(C3)CC4C(=O)O)cc2)c1` (single isomer, unassigned) [Example 42, 5-(2′-Fluoro-5′-isopropoxy-[1,1′-biphenyl]-4-yl)spiro[2.3]hexane-1-carboxylic acid], the EC50 stood at 2.21 µM. For `CC(C)Oc1ccc(F)c(-c2ccc([C@H]3C[C@H](CC(=O)O)C3)cc2)c1` [Example 44, 2-(Trans-3-(2′-fluoro-5′-isopropoxy-[1,1′-biphenyl]-4-yl)cyclobutyl)acetic acid] the value was 0.14 µM. In the case of “Cis-2-(3-(2′,3′-difluoro- 5′-(3- fluorophenoxy)-[1,1′- biphenyl]-4-yl)cyclobutoxy) acetic acid [Example 37]” it was 0.59 µM; in that of `O=C(O)[C@H]1C[C@@H]1COCC1CC(c2cccc(Oc3ccccc3)c2)C1` (relative stereo) [Example 63, Trans-2-(((3-(3-phenoxyphenyl)cyclobutyl)methoxy)methyl)cyclopropanecarboxylic acid], 1.26 µM; in that of `O=C(O)CO[C@H]1C[C@@H](c2ccc(-c3cc(Oc4ccc(F)cc4)cc(F)c3F)cc2)C1` [Example 34, Cis-2-(3-(2′,3′-difluoro-5′-(4-fluorophenoxy)-[1,1′-biphenyl]-4-yl)cyclobutoxy)acetic acid], 0.24 µM. Compound `Cc1nc(-c2ccc(F)c(-c3ccc([C@H]4C[C@@H](OCC(=O)O)C4)cc3)c2)no1` [Example 21, Cis-2-(3-(2′-Fluoro-5′-(5-methyl-1,2,4-oxadiazol-3-yl)-[1,1′-biphenyl]-4-yl)cyclobutoxy)acetic acid] gave an EC50 of 0.55 µM. For `CC(C)Oc1ccc(F)c(-c2ccc([C@H]3C[C@@H](CCC(=O)O)C3)cc2)c1` [Example 46, Cis-3-(3-(2′-fluoro-5′-isopropoxy-[1,1′-biphenyl]-4-yl)cyclobutyl)propanoic acid] the value was 0.65 µM; for `O=C(O)CO[C@H]1C[C@@H](c2ccc(-c3cc(OC(F)(F)F)ccc3Cl)cc2)C1` [Example 8, Cis-2-(3-(2′-chloro-5′-(trifluoromethoxy)-[1,1′-biphenyl]-4-yl)cyclobutoxy)acetic acid], 0.9 µM. For `CC(C)Oc1ccc(F)c(-c2ccc(C3CC(CC(=O)O)C3)cc2)c1` (centres unmarked) [Example 43, 2-(3-(2′-Fluoro-5′-isopropoxy-[1,1′-biphenyl]-4-yl)cyclobutyl)acetic acid] the value was 0.21 µM; for `CC(C)Oc1ccc(F)c(-c2ccc([C@H]3C[C@@H](OCC(=O)O)C3)cc2)c1F` [Example 15, Cis-2-(3-(2′,6′-difluoro-3′-isopropoxy-[1,1′-biphenyl]-4-yl)cyclobutoxy)acetic acid], 0.8 µM; for `O=C(O)CO[C@H]1C[C@@H](c2ccc(-c3cccc(C(=O)c4ccccc4)c3)cc2)C1` [Example 14, Cis-2-(3-(3′-benzoyl-[1,1′-biphenyl]-4-yl)cyclobutoxy) acetic acid], 0.83 µM. On to `O=C(O)COCCC1CC(OCc2cccc(Oc3ccccc3)c2)C1` (centres unmarked) [Example 57, 2-(2-(3-(3-Phenoxybenzyloxy)cyclobutyl)ethoxy)acetic acid], for which the EC50 was found to be 0.7 µM. Turning to `CC1(C)Cc2cc(Cl)cc(-c3ccc([C@H]4C[C@@H](OCC(=O)O)C4)cc3)c2O1` [Example 24, Cis-2-(3-(4-(5-chloro-2,2-dimethyl-2,3-dihydrobenzofuran-7-yl)phenyl)cyclobutoxy) acetic acid], the EC50 was 2.9 µM. For `O=C(O)CO[C@H]1C[C@@H](c2ccc(-c3cc(Oc4cccnc4)ccc3F)cc2)C1` [Example 28, Cis-2-(3-(2′-fluoro-5′-(pyridin-3-yloxy)-[1,1′-biphenyl]-4-yl)cyclobutoxy) acetic acid] the value was 0.66 µM. Turning to `CC(C)Oc1ccc(F)c(-c2ccc(C[C@H]3C[C@@H](CC(=O)O)C3)cc2)c1` [Example 51, 2-(Cis-3-((2′-fluoro-5′-isopropoxy-[1,1′-biphenyl]-4-yl)methyl)cyclobutyl)acetic acid], the response was half-maximal at 0.56 µM (EC50).

Take `O=C(O)[C@H]1CC1[C@H]1C[C@@H](c2ccc(-c3cc(Oc4ccccc4)ccc3F)cc2)C1` (stereo in doubt) [Example 40, 2-(3-(2′-Fluoro-5′-phenoxy-[1,1′-biphenyl]-4-yl)cyclobutyl)cyclopropanecarboxylic acid]: the midpoint of the response, the EC50, lay at 9.27 µM.

For `CC(C)Oc1ccc(F)c(-c2ccc(CC3CC(C(=O)O)C3)cc2)c1` (single isomer, unassigned) [Example 48, 3-((2′-Fluoro-5′-isopropoxy-[1,1′-biphenyl]-4-yl)methyl)cyclobutanecarboxylic acid], the EC50 was found to be 0.79 µM.

Consider `C[C@]1(CCCOCC(=O)O)C[C@H](c2cccc(Oc3ccccc3)c2)C1` [Example 61, 2-(3-(Trans-1-methyl-3-(3-phenoxyphenyl)cyclobutyl)propoxy)acetic acid], for which the EC50 stood at 0.15 µM. For the compound `O=C(O)CO[C@H]1C[C@@H](c2ccc(-c3cccc(Cc4ccccc4)c3)cc2)C1` [Example 9, Cis-2-(3-(3′-benzyl-[1,1′-biphenyl]-4-yl)cyclobutoxy)acetic acid], the EC50 came to 1.59 µM.

In turn, `O=C(O)CO[C@H]1C[C@@H](c2ccc(-c3cc(OC4CCCC4)ccc3F)cc2)C1` [Example 3, Cis-2-(3-(5′-(cyclopentyloxy)-2′-fluoro-[1,1′-biphenyl]-4-yl)cyclobutoxy)acetic acid] yielded an EC50 of 0.41 µM. For `O=C(O)CO[C@H]1C[C@@H](c2ccc(-c3cc(Oc4cccc(F)c4)ccc3F)cc2)C1` [Example 32, Cis-2-(3-(2′-fluoro-5′-(3-fluorophenoxy)-[1,1′-biphenyl]-4-yl)cyclobutoxy)acetic acid] the value was 0.23 µM; for `O=C(O)CO[C@H]1C[C@@H](c2ccc(-c3cc(Oc4ccccn4)ccc3F)cc2)C1` [Example 26, Cis-2-(3-(2′-fluoro-5′-(pyridin-2-yloxy)-[1,1′-biphenyl]-4-yl)cyclobutoxy) acetic acid], 0.49 µM; for `CC(C)Oc1ccc(F)c(-c2ccc(CC3CC(C(=O)O)C3)cc2)c1` (single isomer, unassigned) [Example 49, 3-((2′-Fluoro-5′-isopropoxy-[1,1′-biphenyl]-4-yl)methyl)cyclobutanecarboxylic acid], 0.5 µM. With `O=C(O)CCOC[C@H]1C[C@@H](OCc2cccc(Oc3ccccc3)c2)C1` [Example 55, 3-((Cis-3-(3-phenoxybenzyloxy)cyclobutyl)methoxy)propanoic acid], the EC50 amounted to 0.47 µM. In the case of `O=C(O)CO[C@H]1C[C@@H](c2ccc(-c3cc(Oc4cccc(F)c4)cnc3Cl)cc2)C1` [Example 22, Cis-2-(3-(4-(2-Chloro-5-(3-fluorophenoxy)pyridin-3-yl)phenyl)cyclobutoxy)acetic acid], it took 0.36 µM to reach a half-maximal effect (EC50).

Turning to `O=C(O)C[C@H]1C[C@@H](Oc2ccc(-c3cc(Oc4ccccc4)ccc3F)cc2)C1` [Example 67, Cis-2-(3-((2′-fluoro-5′-phenoxy-[1,1′-biphenyl]-4-yl)oxy)cyclobutyl)acetic acid], the EC50 is 0.33 µM.
